In paper PMC6149898, “GPCR Modulation of Thieno[2,3-b]pyridine Anti-Proliferative Agents” (Molecules : A Journal of Synthetic Chemistry and Natural …, 2017):

Tests used:
BR:MCF7 = test system: BR:MCF7; parameters: method as in earlier work; settings: NCI-60 panel; ref [4],[5],[6],[7]; cited from earlier work
BR:MDA-MB-231 = test system: BR:MDA-MB-231; parameters: method as in earlier work; settings: NCI-60 panel; ref [4],[5],[6],[7]; cited from earlier work
CNS:SF-268 = test system: CNS:SF-268; parameters: method as in earlier work; settings: NCI-60 panel; ref [4],[5],[6],[7]; cited from earlier work
LE:K-562 = test system: LE:K-562; parameters: method as in earlier work; settings: NCI-60 panel; ref [4],[5],[6],[7]; cited from earlier work
ME:M14 = test system: ME:M14; parameters: method as in earlier work; settings: NCI-60 panel; ref [4],[5],[6],[7]; cited from earlier work
ME:SK-MEL-2 = test system: ME:SK-MEL-2; parameters: method as in earlier work; settings: NCI-60 panel; ref [4],[5],[6],[7]; cited from earlier work
ME:UACC-62 = test system: ME:UACC-62; parameters: method as in earlier work; settings: NCI-60 panel; ref [4],[5],[6],[7]; cited from earlier work
ADCYAP1R1 = ADCYAP1R1 (Homo sapiens, UniProt P41586); test: gpcrMAX PathHunter beta-arrestin
ADRB1 = ADRB1 (Homo sapiens, UniProt P08588); test: gpcrMAX PathHunter beta-arrestin
ADRB2 = ADRB2 (Homo sapiens, UniProt P07550); test: gpcrMAX PathHunter beta-arrestin
AGTR1 = AGTR1 (Homo sapiens, UniProt P30556); test: gpcrMAX PathHunter beta-arrestin
AVPR1A = AVPR1A (Homo sapiens, UniProt P37288); test: gpcrMAX PathHunter beta-arrestin
BDKRB1 = BDKRB1 (Homo sapiens, UniProt P46663); test: gpcrMAX PathHunter beta-arrestin
CALCRL-RAMP1 = CALCRL-RAMP1 (Homo sapiens, UniProt O60894+Q16602); test: gpcrMAX PathHunter beta-arrestin
CCKBR = CCKBR (Homo sapiens, UniProt P32239); test: gpcrMAX PathHunter beta-arrestin
CCR5 = CCR5 (Homo sapiens, UniProt P51681); test: gpcrMAX PathHunter beta-arrestin
CCR9 = CCR9 (Homo sapiens, UniProt P51686); test: gpcrMAX PathHunter beta-arrestin
CNR1 = CNR1 (Homo sapiens, UniProt P21554); test: gpcrMAX PathHunter beta-arrestin
CXCR2 = CXCR2 (Homo sapiens, UniProt P25025); test: gpcrMAX PathHunter beta-arrestin
DRD2S = DRD2S (Homo sapiens, UniProt P14416); test: gpcrMAX PathHunter beta-arrestin
EDNRB = EDNRB (Homo sapiens, UniProt P24530); test: gpcrMAX PathHunter beta-arrestin
FPRL1 = FPRL1 (Homo sapiens, UniProt P25090); test: gpcrMAX PathHunter beta-arrestin
GALR1 = GALR1 (Homo sapiens, UniProt P47211); test: gpcrMAX PathHunter beta-arrestin
GIPR = GIPR (Homo sapiens, UniProt P48546); test: gpcrMAX PathHunter beta-arrestin
GPR1 = GPR1 (Homo sapiens, UniProt P46091); test: gpcrMAX PathHunter beta-arrestin
GPR92 = GPR92 (Homo sapiens, UniProt Q9H1C0); test: gpcrMAX PathHunter beta-arrestin
HRH1 = HRH1 (Homo sapiens, UniProt P35367); test: gpcrMAX PathHunter beta-arrestin
KISS1R = KISS1R (Homo sapiens, UniProt Q969F8); test: gpcrMAX PathHunter beta-arrestin
MLNR = MLNR (Homo sapiens, UniProt O43193); test: gpcrMAX PathHunter beta-arrestin
MRGPRX2 = MRGPRX2 (Homo sapiens, UniProt Q96LB1); test: gpcrMAX PathHunter beta-arrestin
MTNR1A = MTNR1A (Homo sapiens, UniProt P48039); test: gpcrMAX PathHunter beta-arrestin
NPFFR1 = NPFFR1 (Homo sapiens, UniProt Q9GZQ6); test: gpcrMAX PathHunter beta-arrestin
OPRD1 = OPRD1 (Homo sapiens, UniProt P41143); test: gpcrMAX PathHunter beta-arrestin
OPRL1 = OPRL1 (Homo sapiens, UniProt P41146); test: gpcrMAX PathHunter beta-arrestin
PROKR2 = PROKR2 (Homo sapiens, UniProt Q8NFJ6); test: gpcrMAX PathHunter beta-arrestin
SCTR = SCTR (Homo sapiens, UniProt P47872); test: gpcrMAX PathHunter beta-arrestin
SSTR3 = SSTR3 (Homo sapiens, UniProt P32745); test: gpcrMAX PathHunter beta-arrestin
TACR2 = TACR2 (Homo sapiens, UniProt P21452); test: gpcrMAX PathHunter beta-arrestin
TBXA2R = TBXA2R (Homo sapiens, UniProt P21731); test: gpcrMAX PathHunter beta-arrestin
TRHR = TRHR (Homo sapiens, UniProt P34981); test: gpcrMAX PathHunter beta-arrestin

Chain of EDNRB (P24530 27-442): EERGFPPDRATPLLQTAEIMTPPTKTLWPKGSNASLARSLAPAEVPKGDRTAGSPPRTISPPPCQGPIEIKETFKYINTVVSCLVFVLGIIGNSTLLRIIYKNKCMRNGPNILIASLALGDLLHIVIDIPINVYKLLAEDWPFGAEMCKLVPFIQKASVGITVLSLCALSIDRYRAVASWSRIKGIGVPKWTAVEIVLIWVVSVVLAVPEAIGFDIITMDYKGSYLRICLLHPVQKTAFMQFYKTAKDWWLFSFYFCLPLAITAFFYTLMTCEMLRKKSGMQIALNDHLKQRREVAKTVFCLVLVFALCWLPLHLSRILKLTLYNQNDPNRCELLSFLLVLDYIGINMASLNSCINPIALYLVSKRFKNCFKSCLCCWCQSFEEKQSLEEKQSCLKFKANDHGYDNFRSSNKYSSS
Chain of GIPR (P48546 22-466): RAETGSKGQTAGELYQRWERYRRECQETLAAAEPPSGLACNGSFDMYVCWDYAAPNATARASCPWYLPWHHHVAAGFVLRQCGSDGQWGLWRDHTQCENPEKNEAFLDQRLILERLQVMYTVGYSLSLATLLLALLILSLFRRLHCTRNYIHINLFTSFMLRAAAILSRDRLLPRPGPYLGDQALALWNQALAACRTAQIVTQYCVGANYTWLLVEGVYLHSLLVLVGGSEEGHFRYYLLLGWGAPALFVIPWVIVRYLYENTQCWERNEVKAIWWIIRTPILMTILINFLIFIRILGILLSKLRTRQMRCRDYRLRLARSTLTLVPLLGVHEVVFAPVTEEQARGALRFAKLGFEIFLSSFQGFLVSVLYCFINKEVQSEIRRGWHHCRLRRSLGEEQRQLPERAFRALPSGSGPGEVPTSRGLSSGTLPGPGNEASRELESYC
Chain of OPRL1 (P41146 whole entry): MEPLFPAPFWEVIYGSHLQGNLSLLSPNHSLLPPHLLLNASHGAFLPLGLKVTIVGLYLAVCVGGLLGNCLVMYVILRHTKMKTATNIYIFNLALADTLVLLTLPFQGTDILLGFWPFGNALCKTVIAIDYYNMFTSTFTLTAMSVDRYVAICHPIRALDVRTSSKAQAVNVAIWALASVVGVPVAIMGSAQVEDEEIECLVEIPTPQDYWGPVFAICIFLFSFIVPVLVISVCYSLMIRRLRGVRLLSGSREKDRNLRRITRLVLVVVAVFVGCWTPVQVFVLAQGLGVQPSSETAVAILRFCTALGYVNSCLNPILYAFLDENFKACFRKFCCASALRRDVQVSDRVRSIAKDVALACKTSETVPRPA
Chain of CNR1 (P21554 whole entry): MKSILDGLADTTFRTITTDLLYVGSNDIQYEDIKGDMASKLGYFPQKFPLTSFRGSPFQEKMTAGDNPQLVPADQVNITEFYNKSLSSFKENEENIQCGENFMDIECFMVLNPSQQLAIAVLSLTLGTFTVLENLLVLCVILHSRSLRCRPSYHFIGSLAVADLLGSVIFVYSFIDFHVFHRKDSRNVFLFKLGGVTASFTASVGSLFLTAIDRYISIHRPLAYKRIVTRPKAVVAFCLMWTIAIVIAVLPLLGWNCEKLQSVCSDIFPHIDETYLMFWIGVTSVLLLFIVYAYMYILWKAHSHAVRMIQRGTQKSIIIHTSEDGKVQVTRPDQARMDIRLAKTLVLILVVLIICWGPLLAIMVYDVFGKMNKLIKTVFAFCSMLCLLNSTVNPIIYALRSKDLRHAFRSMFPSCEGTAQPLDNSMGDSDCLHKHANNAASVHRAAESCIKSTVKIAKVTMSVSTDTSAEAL
Chain of NPFFR1 (Q9GZQ6 whole entry): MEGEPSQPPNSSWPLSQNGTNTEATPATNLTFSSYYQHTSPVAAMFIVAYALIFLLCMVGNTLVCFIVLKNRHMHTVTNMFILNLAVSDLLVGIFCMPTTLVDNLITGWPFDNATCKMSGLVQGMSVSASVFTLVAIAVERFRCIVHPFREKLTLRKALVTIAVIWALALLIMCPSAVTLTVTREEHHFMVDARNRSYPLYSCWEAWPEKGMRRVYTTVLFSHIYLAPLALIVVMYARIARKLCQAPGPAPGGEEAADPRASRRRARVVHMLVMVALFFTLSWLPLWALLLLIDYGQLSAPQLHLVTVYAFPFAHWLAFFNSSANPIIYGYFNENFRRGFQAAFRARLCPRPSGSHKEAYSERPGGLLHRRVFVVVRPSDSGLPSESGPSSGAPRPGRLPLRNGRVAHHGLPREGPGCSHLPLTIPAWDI
Chain of HRH1 (P35367 whole entry): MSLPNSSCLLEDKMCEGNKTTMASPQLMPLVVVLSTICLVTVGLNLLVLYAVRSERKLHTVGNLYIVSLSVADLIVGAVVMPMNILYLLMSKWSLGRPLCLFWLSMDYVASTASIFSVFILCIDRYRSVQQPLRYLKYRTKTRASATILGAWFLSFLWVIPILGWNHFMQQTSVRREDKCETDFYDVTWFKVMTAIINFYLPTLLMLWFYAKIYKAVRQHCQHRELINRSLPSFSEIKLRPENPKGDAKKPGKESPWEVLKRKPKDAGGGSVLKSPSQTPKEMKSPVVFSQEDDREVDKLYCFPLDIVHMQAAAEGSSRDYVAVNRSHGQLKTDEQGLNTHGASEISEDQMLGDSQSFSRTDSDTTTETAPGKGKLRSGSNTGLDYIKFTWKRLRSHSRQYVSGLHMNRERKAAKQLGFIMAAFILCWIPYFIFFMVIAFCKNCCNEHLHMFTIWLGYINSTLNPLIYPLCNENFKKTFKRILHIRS
Chain of CALCRL-RAMP1 (Q16602 23-461): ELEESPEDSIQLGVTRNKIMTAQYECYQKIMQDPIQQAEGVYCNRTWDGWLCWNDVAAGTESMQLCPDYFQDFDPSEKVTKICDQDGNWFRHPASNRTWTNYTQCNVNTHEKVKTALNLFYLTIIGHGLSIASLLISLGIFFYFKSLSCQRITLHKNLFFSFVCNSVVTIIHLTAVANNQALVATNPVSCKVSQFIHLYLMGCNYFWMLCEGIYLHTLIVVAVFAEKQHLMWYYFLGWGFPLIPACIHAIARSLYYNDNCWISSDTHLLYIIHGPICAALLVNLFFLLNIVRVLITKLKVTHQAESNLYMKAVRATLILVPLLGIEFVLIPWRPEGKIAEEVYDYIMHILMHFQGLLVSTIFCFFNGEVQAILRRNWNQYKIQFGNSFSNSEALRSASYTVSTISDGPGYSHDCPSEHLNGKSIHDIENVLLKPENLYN
Chain of CALCRL-RAMP1 (O60894 27-148 partner): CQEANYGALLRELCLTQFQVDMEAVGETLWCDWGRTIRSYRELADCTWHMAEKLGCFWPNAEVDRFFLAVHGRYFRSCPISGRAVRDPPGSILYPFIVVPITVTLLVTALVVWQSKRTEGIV
Chain of CCR9 (P51686 whole entry): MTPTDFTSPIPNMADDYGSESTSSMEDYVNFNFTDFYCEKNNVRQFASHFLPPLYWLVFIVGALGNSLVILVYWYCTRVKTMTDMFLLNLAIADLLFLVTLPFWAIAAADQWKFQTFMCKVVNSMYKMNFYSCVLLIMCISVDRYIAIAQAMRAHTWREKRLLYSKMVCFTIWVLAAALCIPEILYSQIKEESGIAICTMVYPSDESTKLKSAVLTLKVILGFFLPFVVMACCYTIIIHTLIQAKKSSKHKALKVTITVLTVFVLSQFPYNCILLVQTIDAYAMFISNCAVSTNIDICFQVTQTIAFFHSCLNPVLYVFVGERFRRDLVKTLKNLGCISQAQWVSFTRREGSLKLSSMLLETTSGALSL
Chain of CXCR2 (P25025 whole entry): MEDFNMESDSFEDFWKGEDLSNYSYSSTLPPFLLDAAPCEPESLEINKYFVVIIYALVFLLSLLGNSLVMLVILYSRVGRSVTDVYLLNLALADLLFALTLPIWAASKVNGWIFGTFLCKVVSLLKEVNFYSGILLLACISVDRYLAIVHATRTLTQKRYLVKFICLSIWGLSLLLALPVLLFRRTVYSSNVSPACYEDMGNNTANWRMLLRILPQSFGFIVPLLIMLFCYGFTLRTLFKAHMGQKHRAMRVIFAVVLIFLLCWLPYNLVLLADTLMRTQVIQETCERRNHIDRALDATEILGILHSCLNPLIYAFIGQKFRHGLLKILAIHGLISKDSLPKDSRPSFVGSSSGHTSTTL
Chain of GPR92 (Q9H1C0 whole entry): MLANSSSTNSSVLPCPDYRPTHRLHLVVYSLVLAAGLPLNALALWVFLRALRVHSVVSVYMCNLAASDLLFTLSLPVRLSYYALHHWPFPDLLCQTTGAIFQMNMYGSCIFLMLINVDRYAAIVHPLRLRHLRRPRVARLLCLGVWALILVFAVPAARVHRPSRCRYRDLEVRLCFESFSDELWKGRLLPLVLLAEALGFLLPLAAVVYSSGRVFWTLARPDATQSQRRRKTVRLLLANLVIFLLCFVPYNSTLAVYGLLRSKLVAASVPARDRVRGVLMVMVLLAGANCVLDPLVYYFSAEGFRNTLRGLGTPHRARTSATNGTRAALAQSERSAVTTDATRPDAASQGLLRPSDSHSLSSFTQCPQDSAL
Chain of SSTR3 (P32745 whole entry): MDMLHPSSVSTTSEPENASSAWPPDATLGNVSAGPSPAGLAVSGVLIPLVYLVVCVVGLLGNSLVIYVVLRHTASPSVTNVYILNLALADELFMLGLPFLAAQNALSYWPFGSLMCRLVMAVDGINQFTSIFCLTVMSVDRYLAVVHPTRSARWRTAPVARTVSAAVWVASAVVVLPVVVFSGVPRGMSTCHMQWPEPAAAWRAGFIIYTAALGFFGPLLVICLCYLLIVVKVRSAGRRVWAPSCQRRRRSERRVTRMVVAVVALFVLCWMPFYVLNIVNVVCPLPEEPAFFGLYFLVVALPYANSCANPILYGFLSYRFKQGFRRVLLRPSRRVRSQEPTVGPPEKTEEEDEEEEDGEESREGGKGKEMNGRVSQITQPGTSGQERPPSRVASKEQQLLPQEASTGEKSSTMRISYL

## Cc1c(Cl)cccc1NC(=O)c1sc2nc3c(cc2c1N)C(=O)CCC3 [Compound 1]
BR:MCF7
  GI50: 46.4 nM
BR:MDA-MB-231
  GI50: 141 nM
CNS:SF-268
  GI50: 238 nM
LE:K-562
  GI50: 37.5 nM
ME:M14
  GI50: 71.3 nM
ME:SK-MEL-2
  GI50: 47.7 nM
ME:UACC-62
  GI50: 50.3 nM
ADCYAP1R1
  inhibition at 10 µM: 23%
ADRB1
  inhibition at 10 µM: -27%
ADRB2
  inhibition at 10 µM: -46%
AGTR1
  inhibition at 10 µM: 7%
AVPR1A
  inhibition at 10 µM: -12%
BDKRB1
  inhibition at 10 µM: -9%
CALCRL-RAMP1
  inhibition at 10 µM: 6%
CCKBR
  inhibition at 10 µM: 12%
CCR5
  inhibition at 10 µM: 11%
CCR9
  inhibition at 10 µM: 17%
CNR1
  inhibition at 10 µM: 23%
CXCR2
  inhibition at 10 µM: 33%
DRD2S
  inhibition at 10 µM: -6%
EDNRB
  inhibition at 10 µM: 0%
FPRL1
  inhibition at 10 µM: 11%
GALR1
  inhibition at 10 µM: 12%
GIPR
  inhibition at 10 µM: 2%
GPR1
  inhibition at 10 µM: 7%
GPR92
  inhibition at 10 µM: -28%
HRH1
  inhibition at 10 µM: 13%
KISS1R
  inhibition at 10 µM: 5%
MLNR
  inhibition at 10 µM: -18%
MRGPRX2
  inhibition at 10 µM: -1%
MTNR1A
  inhibition at 10 µM: -15%
NPFFR1
  inhibition at 10 µM: -55%
OPRD1
  inhibition at 10 µM: -26%
OPRL1
  inhibition at 10 µM: -7%
PROKR2
  inhibition at 10 µM: -3%
SCTR
  inhibition at 10 µM: 13%
SSTR3
  inhibition at 10 µM: 5%
TACR2
  inhibition at 10 µM: 14%
TBXA2R
  inhibition at 10 µM: -1%
TRHR
  inhibition at 10 µM: 13%
